Experimental data reported in patent US9328129B2, “Peptidomimetic inhibitors of PSMA” (Washington State University, priority 2010, dated 2016).

Assays:
[1] = test system: LNCaP PSMA+ tumor xenografts; assay: Biodistribution of the 99mTc-labeled probe in mice bearing LNCaP and PC3 tumor xenografts; assay type: in vivo, mouse; settings: LNCaP PSMA+ tumor xenograft, 4 hours following tail-vein injection
Source text: Both PSMA+ (LNCaP) and PSMA− (PC3) tumor xenografts were implanted in opposite rear flanks of each mouse. Thus, each mouse served as both a positive and negative control.

LNCaP (PSMA+) cells [2] = assay: Extent of internalization of the 99mTc-labeled probe; assay type: cell-based
Method: (§1) Both LNCaP (PSMA+) and PC3 (PSMA−) cells were treated with DTPA-SCN-CTT-54 labeled with pertechnetate (^99mTcO4^−) reduced with SnCl2. At increasing time points at 37° C., cells were washed free of the probe and uptake was determined as a percentage of the total amount of probe applied.

LNCaP (PSMA+) cells [3] = assay: Uptake of 99mTc-labeled DTPA-SCN-CTT-54 by cells, as percentage of total probe applied; assay type: cell-based
Method: as §1

PSMA = target: T1, PSMA (Homo sapiens, UniProt Q04609); assay: Competitive binding experiments: preincubation with unlabeled CTT-54 before the radiolabeled probe; assay type: cell-based; settings: 0 nM CTT-54, probe 2 hours
T1 construct: endogenous in cells; host or cells: LNCaP
T1 sequence (Q04609 whole entry): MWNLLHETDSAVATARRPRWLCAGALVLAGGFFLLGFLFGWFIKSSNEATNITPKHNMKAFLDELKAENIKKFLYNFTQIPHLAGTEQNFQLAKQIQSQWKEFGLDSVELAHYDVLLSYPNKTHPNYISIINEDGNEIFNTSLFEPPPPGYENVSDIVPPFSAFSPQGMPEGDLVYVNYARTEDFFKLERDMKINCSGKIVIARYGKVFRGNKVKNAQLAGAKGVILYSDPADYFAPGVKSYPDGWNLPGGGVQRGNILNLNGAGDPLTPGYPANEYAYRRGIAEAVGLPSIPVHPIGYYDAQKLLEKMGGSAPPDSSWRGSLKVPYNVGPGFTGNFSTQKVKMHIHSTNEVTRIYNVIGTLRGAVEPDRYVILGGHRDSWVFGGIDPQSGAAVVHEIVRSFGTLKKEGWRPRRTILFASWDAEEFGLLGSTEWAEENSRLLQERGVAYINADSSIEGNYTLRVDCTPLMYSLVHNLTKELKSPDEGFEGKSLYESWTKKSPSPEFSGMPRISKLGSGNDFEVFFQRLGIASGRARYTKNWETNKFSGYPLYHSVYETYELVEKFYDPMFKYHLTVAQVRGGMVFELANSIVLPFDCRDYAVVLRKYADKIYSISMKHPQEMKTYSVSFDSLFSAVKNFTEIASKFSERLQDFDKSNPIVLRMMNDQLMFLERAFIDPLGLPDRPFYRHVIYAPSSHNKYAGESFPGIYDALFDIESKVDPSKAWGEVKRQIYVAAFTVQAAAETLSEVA

SMILES	uptake in tumor xenografts (biodistribution) [1]	% internalization (LNCaP (PSMA+) cells [2]; 30 min) [%]	% internalization (LNCaP (PSMA+) cells [2]; 2 hr) [%]	% internalization (LNCaP (PSMA+) cells [2]; 4 hr) [%]	extent of internalization of the probe (LNCaP (PSMA+) cells [2]; preliminary studies)	internalization (LNCaP (PSMA+) cells [2]; within 30 min)	time for binding to the cell surface (LNCaP (PSMA+) cells [3]) [min]	% uptake (LNCaP (PSMA+) cells [3]; 30 min) [%]	% uptake (LNCaP (PSMA+) cells [3]; 2 hr) [%]	% uptake (LNCaP (PSMA+) cells [3]; 4 hr) [%]	uptake (LNCaP versus PC3 cells) (LNCaP (PSMA+) cells [3]; labeled with pertechnetate (99mTcO4−) reduced with SnCl2, increasing time points at 37° C.)	% Uptake of the radiolabeled probe without competitor (PSMA) [%]
O=C(O)CC[C@H](NP(=O)(O)OC[C@H](NC(=O)CC[C@H](NC(=S)Nc1ccc(CC(CN(CCN(CC(=O)O)CC(=O)O)CC(=O)O)N(CC(=O)O)CC(=O)O)cc1)C(=O)O)C(=O)O)C(=O)O (stereo partly drawn) (99mTc complex, metal not drawn) [DTPA-SCN-CTT-54, N-{[(4-{2-[bis(carboxymethyl)amino]-3-[{2-[bis(carboxymethyl)amino]ethyl} (carboxymethyl)amino]propyl}phenyl)amino]carbonothioyl}-L-γ-glutamyl-O-[{[(1S)-1,3-dicarboxypropyl]amino} (hydroxy)phosphoryl]-L-serine]	substantial uptake	71.9	71.0	79.5	greater than 80%	greater than 70%	≤ 30	2.30	2.94	2.34	exclusive for LNCaP cells	
O=C(O)CC[C@H](NP(=O)(O)OC[C@H](NC(=O)CC[C@H](NC(=S)Nc1ccc(CC(CN(CCN(CC(=O)O)CC(=O)O)CC(=O)O)N(CC(=O)O)CC(=O)O)cc1)C(=O)O)C(=O)O)C(=O)O (stereo partly drawn) [DTPA-SCN-CTT-54, N-{[(4-{2-[bis(carboxymethyl)amino]-3-[{2-[bis(carboxymethyl)amino]ethyl} (carboxymethyl)amino]propyl}phenyl)amino]carbonothioyl}-L-γ-glutamyl-O-[{[(1S)-1,3-dicarboxypropyl]amino} (hydroxy)phosphoryl]-L-serine]												4.46
